Test results: patent US10241113B2, “CD28 expression during lenalidomide immune modulation” (H. LEE MOFFITT CANCER CENTER AND RESEARCH INSTITUTE, INC., priority 2012, dated 2019)

Assays:
CD28 [1] = assay: CD28 surface expression by flow cytometry after anti-CD3 stimulation; assay type: cell-based, human; conditions: anti-CD3 alone, 72 hours
Description: Stimulation followed by measurement of CD28 surface expression was performed using anti-CD3 (10 μg/ml) alone or anti-CD3 (10 μg/ml) plus anti-CD28 (10 μg/ml) coupled 4.5 micron polystyrene polybeads (Polysciences, Inc, Warrington, Pa. USA). 1×10^5 beads were added to 2×10^5 cells in u-bottom 96-well plates, as previously described (Viola A, et al. Science 1999 283(5402):680-2). Cells were collected at 72 hours and 5 days, and CD28 surface expression was measured via flow cytometry on LSRII flow cytometer (BD Biosciences, San Jose, Calif. USA).

purified human T-cells [2] = assay: T-cell proliferation by BrdU incorporation, anti-CD3 stimulated; assay type: cell-based; conditions: increasing anti-CD3, 10 μM LEN
Description: (§1) Peripheral blood from buffy coats of healthy donors was obtained from the Southwest Florida Blood Services, St. Petersburg, Fla., for use as controls and for the purification of T-cells. T-cells were isolated from the buffy coats using RosetteSep® Human CD3^+ T-cell Enrichment Cocktail (StemCell Technologies, Vancouver, BC Canada) according to the manufacturer's protocol. B57BL6 mice were maintained at an animal facility in accordance with the University of South Florida Committee on Animal Care. All mice were adult age 8-12 weeks, obtained from The Jackson Laboratory, and maintained in a pathogen-free environment at Moffitt Cancer Center. Mouse-specific antibodies for T-cell activation were purchased from eBioscience (San Diego, Calif.) and human-specific antibodies were purchased from BD Biosciences (San Jose, Calif. USA). To activate the T-cell receptor (TCR), T-cells were stimulated with plate-bound anti-CD3 antibody (1 μg/ml or indicated concentration) coated onto flat-bottomed polystyrene tissue culture plates overnight at 4° C. […]
Proliferation was determined after in vitro activation by bromodeoxyuridine (BrdU) incorporation (BrdU flow kit, BD Biosciences, San Diego, Calif. USA). […] The percentage of BrdU positive cells from each population was analyzed using Flow-Jo Software (TreeStar Inc, Ashland, Oreg. USA.).

IL-2 gene = assay: IL-2 mRNA expression by RT-qPCR; assay type: cell-based, human; conditions: anti-CD3 alone without anti-CD28, 18 hours
Description: as §1, with “USA).” for “USA). To activate the T-cell receptor (TCR), T-cells were stimulated with plate-bound anti-CD3 antibody (1 μg/ml or indicated concentration) coated onto flat-bottomed polystyrene tissue culture plates overnight at 4° C.”
(§2) Total RNA was extracted from purified T-cells using the RNeasy Mini Kit (Qiagen, Chatsworth, Calif. USA). […] Relative target gene expression was measured by qRT-PCR using 18S rRNA expression as a reference gene. Expression levels of target mRNA and 18S rRNA were evaluated with Taqman Probes obtained from Applied Biosystems (Carlsbad, Calif.). All samples for both target genes (IL-2 or CD28) and 18S rRNA were measured in triplicate. Relative mRNA expression level for each sample was calculated using the ΔΔCt method (Pfaffl M W. Nucleic Acids Res 2001 May 1; 29(9):e45).

[3] = system: CD8^+CD28^+ and CD8^+CD28^− T-cells; assay: BrdU proliferation of sorted CD8^+CD28^+ and CD8^+CD28^− T-cells; assay type: cell-based, human; conditions: 3 days, 10 μM LEN
Description: Proliferation was determined after in vitro activation by bromodeoxyuridine (BrdU) incorporation (BrdU flow kit, BD Biosciences, San Diego, Calif. USA). […] of BrdU was added during the last 45 min of T-cell stimulation. BrdU pulsed T-cells were harvested and stained with anti-CD4-PE and anti-CD8-PE-Cy-5 (BD Pharmingen, San Jose, Calif. USA). The cells were then fixed and permeabilized with BD Cytofix/Cytoperm buffer and incubated with DNase for 1 hour at 37° C. Cells were stained with anti-BrdU-FITC antibody before flow cytometry analysis on an LSRII flow cytometer (BD Biosciences, San Jose, Calif. USA). The percentage of BrdU positive cells from each population was analyzed using Flow-Jo Software (TreeStar Inc, Ashland, Oreg. USA.).
(§3) T-cells were purified from healthy donor buffy coats as previously described, and were stained with 4′,6-diamidino-2-phenylindole (DAPI) for viability, anti-CD8-APC-Cy7, CD4-PerCP-Cy5.5, and CD28-FITC antibodies (BD Pharmingen, San Jose, Calif.). Cells were then sorted into CD8^+CD28^+, CD8^+CD28^− populations via FACS Aria Cell Sorter (BD Pharmingen, San Jose, Calif.).

purified human T-cells [4] = assay: IL-2 production by ELISA in stimulated T-cells; assay type: cell-based
Description: (§4) Peripheral blood from buffy coats of healthy donors was obtained from the Southwest Florida Blood Services, St. Petersburg, Fla., for use as controls and for the purification of T-cells. T-cells were isolated from the buffy coats using RosetteSep® Human CD3^+ T-cell Enrichment Cocktail (StemCell Technologies, Vancouver, BC Canada) according to the manufacturer's protocol. B57BL6 mice were maintained at an animal facility in accordance with the University of South Florida Committee on Animal Care. All mice were adult age 8-12 weeks, obtained from The Jackson Laboratory, and maintained in a pathogen-free environment at Moffitt Cancer Center. Mouse-specific antibodies for T-cell activation were purchased from eBioscience (San Diego, Calif.) and human-specific antibodies were purchased from BD Biosciences (San Jose, Calif. USA). To activate the T-cell receptor (TCR), T-cells were stimulated with plate-bound anti-CD3 antibody (1 μg/ml or indicated concentration) coated onto flat-bottomed polystyrene tissue culture plates overnight at 4° C. Purified T-cells (1×10^6/ml) were added to the coated 96-well plates in a 200 μl volume for 48 hours at 37° C. In some instances, 1.0 μg/ml anti-CD28 was added for co-stimulation.
(§5) Lenalidomide (Revlimid®) was provided by Celgene Corporation (Warren, N.J.). […] An equal volume of DMSO was used as a vehicle control.
For siRNA knockdown (KD), T-cells were transfected with siCD28 or control siRNA (Santa Cruz Biotechnology, Inc, Santa Cruz, Calif. USA) using Amaxa Nucleofection technology (Lonza, Basel, Switzerland). 10×10^6 purified T-cells were mixed with either control or CD28 siRNA in 100 μl Human T-cell nucleofection solution, nucleofected, and then placed in Lymphocye Media (Lonza Basel, Switzerland). Cells were rested 24 hours before being stimulated with either plate bound anti-CD3, or anti-CD3^+CD28, antibodies in the presence or absence of LEN. CD28 surface expression was measured via flow cytometry at 48 and 72 hours after stimulation, at the same time supernatant was collected for ELISA analysis. […]

CD28 [5] = assay: CD28 mRNA expression by RT-qPCR; assay type: cell-based, human; conditions: anti-CD3 stimulation, 18 or 24 hours
Description: as §2

CD28 [6] = assay: CD28 internalization and re-expression by flow cytometry after co-stimulation; assay type: cell-based, human
Description: (§6) For siRNA knockdown (KD), T-cells were transfected with siCD28 or control siRNA (Santa Cruz Biotechnology, Inc, Santa Cruz, Calif. USA) using Amaxa Nucleofection technology (Lonza, Basel, Switzerland). 10×10^6 purified T-cells were mixed with either control or CD28 siRNA in 100 μl Human T-cell nucleofection solution, nucleofected, and then placed in Lymphocye Media (Lonza Basel, Switzerland). Cells were rested 24 hours before being stimulated with either plate bound anti-CD3, or anti-CD3^+CD28, antibodies in the presence or absence of LEN. CD28 surface expression was measured via flow cytometry at 48 and 72 hours after stimulation, at the same time supernatant was collected for ELISA analysis. Supernatant from stimulation experiments was frozen at −80° C. for analysis via Human IL-2 ELISA kit (eBioscience, San Diego, Calif. USA).

CD28 [7] = assay: Western blot for total CD28 protein expression; assay type: cell-based, human; conditions: anti-CD3 activation for 1, 2, 4, 8, 12, and 48 hours
murine T-cells = assay: IL-2 production by ELISA in murine T-cells; assay type: cell-based, B57BL6 mice
Description: as §4, §5

CD8^+CD28^− T-cells = assay: IL-2 ELISA of sorted CD8^+CD28^− T-cells; assay type: cell-based, human; conditions: anti-CD3 stimulation, 3 days, 10 μM LEN
Description: as §3, §6

MDS patients = assay: Hematologic response of MDS patients versus pre-treatment CD28 expression; assay type: in vivo, human; conditions: 10 mg 21 of 28 days, 16 weeks, 7 NR and 4 R
Description: MDS patients (n=100) were consented at H. Lee Moffitt Cancer Center in Tampa, Fla. to participate in a peripheral blood collection protocol approved by the University of South Florida Institutional Review Board from 2004-2009. All patients signed University of South Florida Institutional Review Board approved informed consents for the collection of 40 ml of peripheral blood in heparin tubes. Samples were obtained from each patient at various times from 2004-2009 for immune monitoring studies and all cells were frozen in liquid nitrogen. Twenty-one of these patients had samples that were collected within 4 weeks prior to LEN treatment. LEN was administered at a dose of 10 mg for 21 out of a 28-day cycle for four cycles. All patients were evaluated for hematologic response after 16 weeks according to 2006 International Working Group Criteria (IWG). […]
Naïve and memory CD4 and CD8 T-cell subtypes in MDS patients and healthy donors were detected after surface staining with anti-CD3-PE-Cy7, anti-CD8-PerCP-Cy5.5, anti-CD45RA-FITC, anti-CD27-APC, anti-CD28-PE, and DAPI (all from BD Biosciences, San Jose, Calif. USA). […] Samples were run on an LSRII flow cytometer (BD Pharmingen) and populations were analyzed by FlowJo Software (Tree Star Inc., Ashland, Oreg. USA).

CD28^+ T-cells = assay: IL-2 ELISA after CD28 siRNA knockdown; assay type: cell-based, human; conditions: average
Description: as §6

[8] = Storage of DMSO stock solutions; assay type: physicochemical; conditions: −20° C.
Description: as §5

[9] = system: pCREB binding to the IL-2 promoter; assay: Chromatin immunoprecipitation of pCREB at the IL-2 promoter; assay type: cell-based, human; conditions: anti-CD3 alone, 18 hours, 10 μM LEN
Description: Cells were isolated, fixed, lysed, and sonicated before chromatin-immunoprecipitation, as previously described (Smith M A, et al. J Biol Chem 2011 Mar. 11; 286(10):7893-904). Briefly, after stimulation and drug treatment, primary T-cells were treated with 1% formaldehyde for 10 min for cross-linking, followed by cell and nuclear lysis (50 mM Tris, pH 8.1, 10 mM EDTA, 1% SDS, 0.5 mM PMSF) and shearing. Chromatin was immunoprecipitated using 5 μg anti-phospho-CREB antibody (Millipore, Temecula, Calif. USA) and protein A/G beads (Santa Cruz Biotechnology Inc., Santa Cruz, Calif. USA). Immunoprecipitated chromatin was collected and washed sequentially with TSE buffer (20 mM Tris, pH 8.1, 50 mM NaCl, 2 mM EDTA, 0.1% SDS, 1.0% Triton X-100) and LiCl buffer (100 mM Tris, pH 8.1, 50 mM LiCl, 1% Nonidet P-40, 1% sodium deoxycholic acid, 1 mM EDTA). DNA was then eluted from the beads with 50 mM NaHCO3 containing 1% SDS and cross-linking reversed at 65° C. overnight followed by proteinase K treatment. DNA was then purified via QIAquick PCR purification kit (Qiagen, Germantown, Md. USA). For each sample, 4 μl DNA was amplified and measured using Sybr Green (Bio-Rad, Inc., Hercules, Calif. USA). Primers used to amplify the pCREB binding site-180 upstream of the transcription start site were: forward: 5′-[…]-3′ (SEQ ID NO:1) and reverse: 5′-[…]-3′ (SEQ ID NO:2).

[10] = species comparison; cited from earlier work

Nc1cccc2c1CN(C1CCC(=O)NC1=O)C2=O (stereo not drawn) [LEN, Lenalidomide]
CD28 surface expression (MFI) compared to DMSO (CD28 [1]): amplifies this anti-CD3 response
proliferating cells (% BrdU positive) compared to DMSO (purified human T-cells [2]): stimulated more cells to proliferate in a dose dependent fashion
IL-2 mRNA compared to DMSO (IL-2 gene): dose-dependent increase in IL-2 mRNA
proliferation of CD8^+CD28^+ T-cells ([3]; anti-CD3 stimulation alone): increased proliferation of CD8^+CD28^+ T-cells in a dose-dependent fashion
proliferation of CD8^+CD28^− T-cells compared to DMSO ([3]; anti-CD3 stimulation): displayed no response to LEN
IL-2 production with increasing concentrations of LEN (purified human T-cells [4]; fixed 5 μg/ml anti-CD3 alone): dose-dependency of IL-2 production
increase in IL-2 production (purified human T-cells [4]; human T-cells, anti-CD3 plus anti-CD28 co-stimulation, average, p<0.001): 6 fold
production of IL-2 compared to DMSO (purified human T-cells [4]; human T-cells, increasing anti-CD3, no anti-CD28, 10 μM LEN): increased the production of IL-2
CD28 mRNA (CD28 [5]): did not significantly increase
CD28 re-expression (CD28 [6]; after anti-CD3 plus anti-CD28 stimulation): re-expression was slightly increased
ligand-induced CD28 internalization (CD28 [6]; anti-CD3 plus anti-CD28 stimulation): does not impair ligand-induced internalization
total protein expression of CD28 (CD28 [7]): did not significantly increase
IL-2 production in TCR-stimulated murine T-cells (murine T-cells; anti-CD3 alone): failed to induce IL-2 production
anti-CD28 signaling response (IL-2) in murine T-cells (murine T-cells; anti-CD3 plus anti-CD28): failed to intensify the anti-CD28 signaling response
elaboration of IL-2 in CD8^+CD28^− T-cells (CD8^+CD28^− T-cells): completely abolished in CD8^+CD28^− T-cells with no response to LEN
hematologic response (IWG) in relation to pre-treatment CD28^+ T-cells (MDS patients): correlation between accumulation of CD28^− T-cells and resistance to LEN
LEN-induced IL-2 release, fold increase (CD28^+ T-cells; control siRNA): 7.5 fold
LEN-induced IL-2 release, fold increase (CD28^+ T-cells; siRNA-CD28 knockdown): 4.9 fold
stability of stock solutions on storage [8]: variable loss in activity
binding of pCREB to the IL-2 promoter compared to DMSO [9]: increases binding of pCREB to the IL-2 promoter

O=C1CCC(N2C(=O)c3ccccc3C2=O)C(=O)N1 (stereo not drawn) [Thalidomide]
teratogenic activity [10]: teratogenic activity only in humans, rabbits, chickens and zebrafish, but not in rodents
